From US10450270B2, “Glyoxamide substituted pyrrolamide derivatives and the use thereof as medicaments for the treatment of hepatitis B” (Janssen Sciences Ireland UC, priority 2013, dated 2019)

What was measured:
HBV = experiment: Anti-HBV activity, HepG2.117 inducible HBV producing cell line (Tet-off), intracellular HBV DNA by realtime PCR; assay type: cell-based; conditions: Hepatitis B virus, 72 h; HepG2.117 cells, 3 days of treatment, intracellular HBV DNA; read-out: HepG2 117 EC50
[1] = Cytotoxicity in HepG2 cells, Resazurin viability assay; conditions: human, HepG2 cells

| SMILES | EC50 (HBV) [nM] | CC50 at 4 days [1] [nM] |
| --- | --- | --- |
| Cc1c(C(=O)C(=O)NC2(C(F)(F)F)CCOC2)c(Cl)c(C(=O)Nc2ccc(F)c(C#N)c2)n1C (racemic) [Compound 41, 3-chloro-N-(3-cyano-4-fluoro-phenyl)-1,5-dimethyl-4-[2-oxo-2-[[3-(tri-fluoromethyl)tetrahydrofuran-3-yl]amino]acetyl]pyrrole-2-carboxamide] | 3 | > 25000 |
| C[C@@H](NC(=O)C(=O)c1cc(C(=O)Nc2ccc(F)c(C#N)c2)n(C)c1Br)C(F)(F)F [Compound 25, 5-bromo-N-(3-cyano-4-fluoro-phenyl)-1-methyl-4-[2-oxo-2-[[(1R)-2,2,2-trifluoro-1-methyl-ethyl]amino]acetyl]pyrrole-2-carboxamide] | > 1000 | > 25000 |
| C[C@@H](NC(=O)C(=O)c1cn(C)c(C(=O)Nc2ccc(F)c(C#N)c2)c1Br)C(F)(F)F [Compound 26, 3-bromo-N-(3-cyano-4-fluoro-phenyl)-1-methyl-4-[2-oxo-2-[[(1R)-2,2,2-trifluoro-1-methyl-ethyl]amino]acetyl]pyrrole-2-carboxamide] | 70 | > 25000 |
| C[C@@H](NC(=O)C(=O)c1c(Br)c(C(=O)Nc2ccc(F)c(C#N)c2)n(C)c1Br)C(F)(F)F [Compound 27, 3,5-dibromo-N-(3-cyano-4-fluoro-phenyl)-1-methyl-4-[2-oxo-2-[[(1R)-2,2,2-trifluoro-1-methyl-ethyl]amino]acetyl]pyrrole-2-carboxamide] | 5 | > 25000 |
| C[C@@H](NC(=O)C(=O)c1c(Cl)c(C(=O)Nc2ccc(F)c(C#N)c2)n(C)c1Br)C(F)(F)F [Compound 29, 5-bromo-3-chloro-N-(3-cyano-4-fluoro-phenyl)-1-methyl-4-[2-oxo-2-[[(1R)-2,2,2-trifluoro-1-methyl-ethyl]amino]acetyl]pyrrole-2-carboxamide] | 14 | > 25000 |
| Cn1c(C(=O)Nc2ccc(F)c(C#N)c2)c(Cl)c(C(=O)C(=O)NC(C)(C)C)c1C(F)(F)F [Compound 33, 4-[2-(tert-butylamino)-2-oxo-acetyl]-3-chloro-N-(3-cyano-4-fluoro-phenyl)-1-methyl-5-(trifluoromethyl)pyrrole-2-carboxamide] | 247 | > 25000 |
| Cn1cc(C(=O)C(=O)NC(C)(C)C)c(F)c1C(=O)Nc1ccc(F)c(C#N)c1 [Compound 34, 4-[2-(tert-butylamino)-2-oxo-acetyl]-N-(3-cyano-4-fluoro-phenyl)-3-fluoro-1-methyl-pyrrole-2-carboxamide] | 9 | > 25000 |
| Cn1cc(C(=O)C(=O)NC2(C)CC(F)(F)C2)c(F)c1C(=O)Nc1ccc(F)c(C#N)c1 [Compound 35, N-(3-cyano-4-fluoro-phenyl)-4-[2-[(3,3-difluoro-1-methyl-cyclobutyl)-amino]-2-oxo-acetyl]-3-fluoro-1-methyl-pyrrole-2-carboxamide] | 4 | > 25000 |
| Cc1c(C(=O)C(=O)NC(C)(C)C)c(F)c(C(=O)Nc2ccc(F)c(C#N)c2)n1C [Compound 36, 4-[2-(tert-butylamino)-2-oxo-acetyl]-N-(3-cyano-4-fluoro-phenyl)-3-fluoro-1,5-dimethyl-pyrrole-2-carboxamide] | < 4 | > 25000 |
| Cc1c(C(=O)C(=O)NC2(C)CC(F)(F)C2)c(F)c(C(=O)Nc2ccc(F)c(C#N)c2)n1C [Compound 37, N-(3-cyano-4-fluoro-phenyl)-4-[2-[(3,3-difluoro-1-methyl-cyclobutyl)-amino]-2-oxo-acetyl]-3-fluoro-1,5-dimethyl-pyrrole-2-carboxamide] | 2 | > 25000 |
| CC[C@@H](NC(=O)C(=O)c1cn(C)c(C(=O)Nc2ccc(F)c(C#N)c2)c1Cl)C(F)(F)F [Compound 38, 3-chloro-N-(3-cyano-4-fluoro-phenyl)-1-methyl-4-[2-oxo-2-[[(1R)-1-(trifluoromethyl)propyl]amino]acetyl]pyrrole-2-carboxamide] | 15 | > 25000 |
| Cn1cc(C(=O)C(=O)NC2(C(F)(F)F)CCC2)c(Cl)c1C(=O)Nc1ccc(F)c(C#N)c1 [Compound 39, 3-chloro-N-(3-cyano-4-fluoro-phenyl)-1-methyl-4-[2-oxo-2-[[1-(tri-fluoromethyl)cyclobutyl]amino]acetyl]pyrrole-2-carboxamide] | 6 | > 25000 |
| Cn1cc(C(=O)C(=O)NC2(C)CC(F)(F)C2)c(Cl)c1C(=O)Nc1ccc(F)c(C#N)c1 [Compound 40, 3-chloro-N-(3-cyano-4-fluoro-phenyl)-4-[2-[(3,3-difluoro-1-methyl-cyclobutyl)amino]-2-oxo-acetyl]-1-methyl-pyrrole-2-carboxamide] | 7 | > 25000 |
| CC[C@@H](NC(=O)C(=O)c1c(Cl)c(C(=O)Nc2ccc(F)c(C#N)c2)n(C)c1C)C(F)(F)F [Compound 42, 3-chloro-N-(3-cyano-4-fluoro-phenyl)-1,5-dimethyl-4-[2-oxo-2-[[(1R)-1-(trifluoromethyl)propyl]amino]acetyl]pyrrole-2-carboxamide] | 2 | > 25000 |
| Cc1c(C(=O)C(=O)NC2(C(F)(F)F)CCC2)c(Cl)c(C(=O)Nc2ccc(F)c(C#N)c2)n1C [Compound 43, 3-chloro-N-(3-cyano-4-fluoro-phenyl)-1,5-dimethyl-4-[2-oxo-2-[[1-(tri-fluoromethyl)cyclobutyl]amino]acetyl]pyrrole-2-carboxamide] | 3 | > 25000 |
| Cc1c(C(=O)C(=O)NC2(C)COC2)c(Cl)c(C(=O)Nc2ccc(F)c(C#N)c2)n1C [Compound 44, 3-chloro-N-(3-cyano-4-fluoro-phenyl)-1,5-dimethyl-4-[2-[(3-methyloxetan-3-yl)amino]-2-oxo-acetyl]pyrrole-2-carboxamide] | 3 | > 25000 |
| Cc1c(C(=O)C(=O)NC(C)C)c(Cl)c(C(=O)Nc2ccc(F)c(C#N)c2)n1C [Compound 45, 3-chloro-N-(3-cyano-4-fluoro-phenyl)-4-[2-(isopropylamino)-2-oxo-acetyl]-1,5-dimethyl-pyrrole-2-carboxamide] | 6 | > 25000 |
| Cc1c(C(=O)C(=O)N[C@H](C)C(C)(F)F)c(Cl)c(C(=O)Nc2ccc(F)c(C#N)c2)n1C [Compound 46, 3-chloro-N-(3-cyano-4-fluoro-phenyl)-4-[2-[[(1R)-2,2-difluoro-1-methyl-propyl]amino]-2-oxo-acetyl]-1,5-dimethyl-pyrrole-2-carboxamide] | 3 | > 25000 |
| Cc1c(C(=O)C(=O)NC2(C)CC(F)(F)C2)c(Cl)c(C(=O)Nc2ccc(F)c(C#N)c2)n1C [Compound 47, 3-chloro-N-(3-cyano-4-fluoro-phenyl)-4-[2-[(3,3-difluoro-1-methyl-cyclo-butyl)amino]-2-oxo-acetyl]-1,5-dimethyl-pyrrole-2-carboxamide] | < 4 | > 25000 |
| Cn1c(C(=O)Nc2ccc(F)c(C#N)c2)c(Cl)c(C(=O)C(=O)NC(C)(C)C)c1C1CC1 [Compound 48, 4-[2-(tert-butylamino)-2-oxo-acetyl]-3-chloro-N-(3-cyano-4-fluoro-phenyl)-5-cyclopropyl-1-methyl-pyrrole-2-carboxamide] | 22 | > 25000 |
| Cn1c(C#N)c(C(=O)C(=O)NC(C)(C)C)c(Cl)c1C(=O)Nc1ccc(F)c(C#N)c1 [Compound 49, 4-[2-(tert-butylamino)-2-oxo-acetyl]-3-chloro-5-cyano-N-(3-cyano-4-fluoro-phenyl)-1-methyl-pyrrole-2-carboxamide] | 34 | > 25000 |
| Cn1c(Br)c(C(=O)C(=O)NC(C)(C)C)c(Cl)c1C(=O)Nc1ccc(F)c(C#N)c1 [Compound 50, 5-bromo-4-[2-(tert-butylamino)-2-oxo-acetyl]-3-chloro-N-(3-cyano-4-fluoro-phenyl)-1-methyl-pyrrole-2-carboxamide] | 4 | > 25000 |
| C[C@H](NC(=O)C(=O)c1cc(C(=O)Nc2ccc(F)c(C#N)c2)n(C)c1)C(F)(F)F [Compound 51, N-(3-cyano-4-fluoro-phenyl)-1-methyl-4-[2-oxo-2-[[(1S)-2,2,2-trifluoro-1-methyl-ethyl]amino]acetyl]pyrrole-2-carboxamide] | 42 | > 25000 |
| Cc1c(C(=O)C(=O)NC(C)C)cc(C(=O)Nc2ccc(F)c(C#N)c2)n1C [Compound 52, N-(3-cyano-4-fluoro-phenyl)-4-[2-(isopropylamino)-2-oxo-acetyl]-1,5-dimethyl-pyrrole-2-carboxamide] | 67 | > 25000 |
| CC[C@@H](C)NC(=O)C(=O)c1cc(C(=O)Nc2ccc(F)c(C#N)c2)n(C)c1C [Compound 53, N-(3-cyano-4-fluoro-phenyl)-1,5-dimethyl-4-[2-[[(1R)-1-methylpropyl]-amino]-2-oxo-acetyl]pyrrole-2-carboxamide] | 39 | > 25000 |
| Cc1c(C(=O)C(=O)N[C@H](C)C(C)(F)F)cc(C(=O)Nc2ccc(F)c(C#N)c2)n1C [Compound 54, N-(3-cyano-4-fluoro-phenyl)-4-[2-[[(1R)-2,2-difluoro-1-methyl-propyl]-amino]-2-oxo-acetyl]-1,5-dimethyl-pyrrole-2-carboxamide] | 10 | > 25000 |
| Cc1c(C(=O)C(=O)N[C@@H](C)C(C)(F)F)cc(C(=O)Nc2ccc(F)c(C#N)c2)n1C [Compound 55, N-(3-cyano-4-fluoro-phenyl)-4-[2-[[(1S)-2,2-difluoro-1-methyl-propyl]-amino]-2-oxo-acetyl]-1,5-dimethyl-pyrrole-2-carboxamide] | 9 | > 25000 |
| Cc1c(C(=O)C(=O)NC2(C)CC(F)(F)C2)cc(C(=O)Nc2ccc(F)c(C#N)c2)n1C [Compound 56, N-(3-cyano-4-fluoro-phenyl)-4-[2-[(3,3-difluoro-1-methyl-cyclobutyl)-amino]-2-oxo-acetyl]-1,5-dimethyl-pyrrole-2-carboxamide] | 5 | > 25000 |
